Key:
Assay type in all cases: biochemical
Cathepsin B = Cathepsin B (Homo sapiens, UniProt P07858); test: Cathepsin B inhibition assay, fluorogenic peptide substrate (selectivity for Cat. S over Cat. B); conditions: ratio of cathepsin B inhibition constant to cathepsin S inhibition constant
Description: (§1) The optimal substrate for cathepsin B, acetyl-histidine-proline-valine-lysine-amino carbamoyl coumarin, was identified from screening a combinatorial library of fluorogenic peptide substrates (Harris, J. L., B. J. Backes, et al. Proc Natl Acad Sci U S A 2000, 97(14), 7754-9). Kinetic measurements are performed in a total reaction volume of 30 μl in 384-well microtiter plates. Cathepsin B, at a final concentration of 1.5 nM (active site), is incubated with the compounds at twelve varying concentrations in a buffer containing 100 mM NaAc (pH5.5), 1 mM EDTA, 100 mM NaCl, 0.01% Brij-35 for 20 minutes at room temperature. Control reactions in the absence of inhibitor are performed in replicates of 24. The reactions are initiated by adding the substrate, acetyl-histidine-proline-valine-lysine-amino carbamoyl coumarin, to a final concentration of 10 ™. The rate of substrate hydrolysis is measured by monitoring the increase in fluorescence at an excitation wavelength of 380 nm and an emission wavelength of 450 nm that results from cleavage of the aniline bond in the substrate by the enzyme. The apparent inhibition constants for the compounds are determined from the enzyme progress curves (Kuzmic, P., K. C. Elrod, et al. Anal Biochem 2000, 286(1), 45-50) and are then used to calculate the inhibition constants for competitive inhibitors.
(§2) Selectivity for cathepsin S in the presence of cathepsin isozymes was determined by the ratio of the cathepsin isozyme inhibition constant of a compound of the present invention to the cathepsin S inhibition constant of the same compound. Preferred compounds of the present invention selective for cathepsin S have ratios of greater than 10. More preferred compounds of the present invention selective for cathepsin S have ratios of greater than 100. Most preferred compounds of the present invention selective for cathepsin S have ratios of greater than 1000.

Cathepsin K = molecular target: T1, Cathepsin K (Homo sapiens, UniProt P43235); test: Cathepsin K inhibition assay, fluorogenic peptide substrate (selectivity for Cat. S over Cat. K); conditions: ratio of cathepsin K inhibition constant to cathepsin S inhibition constant
T1 sequence (P43235 115-329): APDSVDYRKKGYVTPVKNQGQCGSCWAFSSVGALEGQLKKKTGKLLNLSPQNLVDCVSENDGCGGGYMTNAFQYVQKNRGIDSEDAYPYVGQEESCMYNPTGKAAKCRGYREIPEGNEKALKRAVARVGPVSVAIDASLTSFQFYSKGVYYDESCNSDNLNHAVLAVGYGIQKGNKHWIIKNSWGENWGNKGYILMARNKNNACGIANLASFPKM
Description: as §1, with “K, acetyl-lysine-histidine-proline-lysine-amino” for “B, acetyl-histidine-proline-valine-lysine-amino”, “K,” for “B,”, “3.5” for “1.5”, “acetyl-lysine-histidine-proline-lysine-amino” for “acetyl-histidine-proline-valine-lysine-amino”, “40 μM.” for “10 ™.”
as §2

Cathepsin S = Cathepsin S (Homo sapiens, UniProt P25774); test: Cathepsin S inhibition assay, fluorogenic peptide substrate; conditions: Cathepsin S inhibition constant; pH5.5, 20 minutes preincubation at room temperature; read-out: Ki Cat. S
Chain of Cathepsin S (P25774 115-331, species assumed): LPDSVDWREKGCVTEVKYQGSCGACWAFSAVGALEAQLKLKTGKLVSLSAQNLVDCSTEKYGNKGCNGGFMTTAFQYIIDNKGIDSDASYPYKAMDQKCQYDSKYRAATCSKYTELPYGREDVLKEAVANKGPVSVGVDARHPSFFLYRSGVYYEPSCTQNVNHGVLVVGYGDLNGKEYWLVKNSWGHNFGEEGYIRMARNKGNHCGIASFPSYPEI
Description: as §1, with “S,” for “B,”, “0.3-3” for “1.5”, “50 μM.” for “10 ™.”

Cathepsin L = Cathepsin L (Homo sapiens, UniProt P07711); test: Cathepsin L inhibition assay, fluorogenic peptide substrate (selectivity for Cat. S over Cat. L); conditions: ratio of cathepsin L inhibition constant to cathepsin S inhibition constant
Chain of Cathepsin L (P07711 114-333, species assumed): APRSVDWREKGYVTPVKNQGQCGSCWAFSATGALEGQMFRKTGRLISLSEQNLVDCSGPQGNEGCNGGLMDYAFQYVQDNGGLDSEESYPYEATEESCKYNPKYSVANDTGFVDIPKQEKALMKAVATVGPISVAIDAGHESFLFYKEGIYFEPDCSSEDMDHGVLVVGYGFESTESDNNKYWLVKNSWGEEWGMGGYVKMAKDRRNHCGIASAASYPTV
Description: as §1, with “L, acetyl-histidine-lysine-phenylalanine-lysine-amino” for “B, acetyl-histidine-proline-valine-lysine-amino”, “L,” for “B,”, “0.1” for “1.5”, “acetyl-histidine-lysine-phenylalanine-lysine-amino” for “acetyl-histidine-proline-valine-lysine-amino”, “20 μM.” for “10 ™.”
as §2

Row | SMILES | Selectivity for Cat. S over Cat. B (Cathepsin B) | Selectivity for Cat. S over Cat. K (Cathepsin K) | Ki (Cathepsin S) | Selectivity for Cat. S over Cat. L (Cathepsin L)
1 | CC(C)(C)C[C@H](Cn1cnc2cc(Cl)c(Cl)cc21)OC(=O)N[C@@H](CO)CN1CCc2cc(F)ccc21 [Example 1, 1-(R)-(5,6-Dichloro-benzimidazol-1-ylmethyl)-3,3-dimethyl-butyl [2-(5-fluoro-2,3-dihydro-indol-1-yl)-1-(R)-hydroxymethyl-ethyl]carbamate] | + (+, >10) | − (−, <10) | < 10000 nM | + (+, >10)
2 | C[C@@H](CN1CCc2cc(F)ccc21)NC(=O)O[C@H](Cn1cnc2ccccc21)CC(C)(C)C [Example 4, 1-(S)-(Benzimidazol-1-ylmethyl-3,3-dimethyl)-butyl [2-(5-fluoro-2,3-dihydro-indol-1-yl)-1-(S)-methyl-ethyl]carbamate] | +++ (+++, >1000) | + (+, >10) | < 100 nM | ++ (++, >100)
3 | C[C@@H](CN1CCc2cc(F)ccc21)NC(=O)O[C@H](CN1CCOCC1)CC(C)(C)C [Example 5, 3,3-Dimethyl-(S)-1-morpholin-4-ylmethyl-butyl [2-(5-fluoro-2,3-dihydro-indol-1-yl)-1-(S)-methyl-ethyl]carbamate] | ++ (++, >100) | − (−, <10) | < 1000 nM | ++ (++, >100)
4 | C[C@@H](CNc1ccc(OC(F)F)cc1)NC(=O)O[C@@H](CC1CCCC1)Cn1ccc(C(F)(F)F)n1 [Example 7, 1-(S)-Cyclopentylmethyl-2-(3-trifluoromethyl-pyrazol-1-yl)-ethyl [2-(4-difluoromethoxy-phenylamino)-1-(S)-methyl-ethyl]carbamate] | ++ (++, >100) | + (+, >10) | < 1000 nM | ++ (++, >100)
5 | C[C@@H](CNc1ccc(OC(F)F)cc1)NC(=O)O[C@@H](CC1CCCC1)Cn1cnc2cc(Cl)c(Cl)cc21 [Example 8, 1-(S)-Cyclopentylmethyl-2-(5,6-dichloro-benzimidazol-1-yl)-ethyl [2-(4-difluoromethoxy-phenylamino)-1-(S)-methyl-ethyl]carbamate] | +++ (+++, >1000) | + (+, >10) | < 1000 nM | ++ (++, >100)
6 | C[C@@H](CNc1ccc(OC(F)(F)F)cc1)NC(=O)O[C@@H](CC1CCCC1)Cn1cnc2cc(Cl)c(Cl)cc21 [Example 10, 1-(S)-Cyclopentylmethyl-2-(5,6-dichloro-benzimidazol-1-yl)-ethyl [2-(4-trifluoromethoxy-phenylamino)-1-(S)-methyl-ethyl]carbamate] | +++ (+++, >1000) | + (+, >10) | < 100 nM | + (+, >10)
7 | C[C@@H](CN1CC(C)(C)c2cc(F)ccc21)NC(=O)O[C@H](Cn1cnc2ccccc21)CC(C)(C)C [Example 11, 1-(S)-(Benzimidazol-1-ylmethyl-3,3-dimethyl)-butyl [2-(5-fluoro-3,3-dimethyl-2,3-dihydro-indol-1-yl)-1-(S)-methyl-ethyl]carbamate] | +++ (+++, >1000) | − (−, <10) | < 100 nM | ++ (++, >100)

More lines, now with the values ahead:

Row | Selectivity for Cat. S over Cat. B (Cathepsin B) | Selectivity for Cat. S over Cat. K (Cathepsin K) | Ki (Cathepsin S) | Selectivity for Cat. S over Cat. L (Cathepsin L) | SMILES
8 | + (+, >10) | + (+, >10) | < 100 nM | − (−, <10) | CC(C)(C)C(Cn1cnc2cc(Cl)c(Cl)cc21)OC(=O)N[C@@H](CO)CN1CCc2cc(F)ccc21 (mixture of isomers) [Example 3, 1-(5,6-Dichloro-benzimidazol-1-ylmethyl)-2,2-dimethyl-propyl [2-(5-fluoro-2,3-dihydro-indol-1-yl)-1-(R)-hydroxymethyl-ethyl]carbamate]
9 | +++ (+++, >1000) | ++ (++, >100) | < 100 nM | + (+, >10) | CC(C)(C)C[C@@H](Cn1cnc2cc(Cl)c(Cl)cc21)OC(=O)N[C@@H](CO)CN1CCc2cc(F)ccc21 [Example 2, 1-(S)-(5,6-Dichloro-benzimidazol-1-ylmethyl)-3,3-dimethyl-butyl [2-(5-fluoro-2,3-dihydro-indol-1-yl)-1-(R)-hydroxymethyl-ethyl]carbamate]
10 | +++ (+++, >1000) | + (+, >10) | < 100 nM | ++ (++, >100) | C[C@@H](CN1CCc2cc(F)ccc21)NC(=O)O[C@@H](CC1CCCC1)Cn1cnc2ccccc21 [Example 6, 2-(Benzimidazol-1-yl)-1-(S)-cyclopentylmethyl-ethyl [2-(5-fluoro-2,3-dihydro-indol-1-yl)-1-(S)-methyl-ethyl]carbamate]
11 | +++ (+++, >1000) | + (+, >10) | < 100 nM | + (+, >10) | C[C@@H](CN1CCc2cc(F)ccc21)NC(=O)O[C@@H](CC1CCCC1)Cn1cnc2cc(Cl)c(Cl)cc21 [Example 9, 1-(S)-cyclopentylmethyl-2-(5,6-dichloro-benzimidazol-1-yl)-ethyl [2-(5-fluoro-2,3-dihydro-indol-1-yl)-1-(S)-methyl-ethyl]carbamate]

Reference: US7256207B2, “Inhibitors of cathepsin S” (IRM LLC, priority 2003, dated 2007)
